According to PMC9506414, “Novel 2,6,9-Trisubstituted Purines as Potent CDK Inhibitors Alleviating Trastuzumab-Resistance of HER2-Positive Breast Cancers” (Pharmaceuticals, 2022):
Where two headings read alike, the source gives them in different places.

What was measured:
SK-Br3 cells = experiment: Antiproliferation assay (Cell-titer Glo, 72 h); assay type: cell-based; conditions: Homo sapiens, SK-BR-3; 72 h; means and standard deviations from three independent assays; read-out: SK-Br3 (GI50/μM)
Description: (§1) Breast-cancer cell lines (SK-Br3, HCC-1954) were purchased from Korea Cell Line Bank (Seoul, Korea) and were cultured in RPMI medium supplemented with 10% FBS and penicillin/streptomycin (Welgene, Seoul, Korea). All cell lines were maintained at 37 °C in a cell incubator in the presence of 5% CO2.
(§2) Breast-cancer cells in culture media (100 μL volume/well, 5000 SK-Br3 cells/well, 1000 HCC-1954 cells/well) were seeded in tissue culture-treated 96-well plates, and incubated at a cell incubator for 24 h. Serially diluted compounds (3-fold, 10 point from 10 mM, duplicated) were pre-plated and 500 nL of compound solutions were pin-transferred to the cells in the assay plates using pintool system (JANUS liquid handler, PerkinElmer, Waltham, MA, USA) and incubated at a cell incubator for 72 h. Cell-titer Glo^TM reagent (50 μL, Promega Corp., Madison, WI, USA) was added to each well, and the luminescence signal was read using an Envision^TM plate reader (PerkinElmer, Waltham, MA, USA). The titration curve fitting and IC50 values were generated using Prism 7.0 s/w (GraphPad, San Diego, CA, USA).

HCC1954 cells = experiment: Antiproliferation assay (Cell-titer Glo, 72 h); assay type: cell-based; conditions: Homo sapiens, 72 h, means and standard deviations from three independent assays, read-out: HCC1954 (GI50/μM)
Description: as §1, §2

CDK12/CyclinK = CDK12/CyclinK (Homo sapiens, UniProt Q9NYV4); experiment: In vitro CDK12/cyclinK kinase assay; assay type: biochemical; set-up: purchased Reaction Biology Corp. (CRO that ran the assay)
Description: In vitro CDK12/cyclinK assays for all compounds and in vitro kinome-wide inhibition profiling of 30d at 10 μM were performed by a CRO company (Reaction Biology Corp., San Diego, CA, USA).

[1] = Tables 1-4, read-out: CDK12/CyclinK (IC50/μM)

Chain of CDK12/CyclinK (Q9NYV4 whole entry): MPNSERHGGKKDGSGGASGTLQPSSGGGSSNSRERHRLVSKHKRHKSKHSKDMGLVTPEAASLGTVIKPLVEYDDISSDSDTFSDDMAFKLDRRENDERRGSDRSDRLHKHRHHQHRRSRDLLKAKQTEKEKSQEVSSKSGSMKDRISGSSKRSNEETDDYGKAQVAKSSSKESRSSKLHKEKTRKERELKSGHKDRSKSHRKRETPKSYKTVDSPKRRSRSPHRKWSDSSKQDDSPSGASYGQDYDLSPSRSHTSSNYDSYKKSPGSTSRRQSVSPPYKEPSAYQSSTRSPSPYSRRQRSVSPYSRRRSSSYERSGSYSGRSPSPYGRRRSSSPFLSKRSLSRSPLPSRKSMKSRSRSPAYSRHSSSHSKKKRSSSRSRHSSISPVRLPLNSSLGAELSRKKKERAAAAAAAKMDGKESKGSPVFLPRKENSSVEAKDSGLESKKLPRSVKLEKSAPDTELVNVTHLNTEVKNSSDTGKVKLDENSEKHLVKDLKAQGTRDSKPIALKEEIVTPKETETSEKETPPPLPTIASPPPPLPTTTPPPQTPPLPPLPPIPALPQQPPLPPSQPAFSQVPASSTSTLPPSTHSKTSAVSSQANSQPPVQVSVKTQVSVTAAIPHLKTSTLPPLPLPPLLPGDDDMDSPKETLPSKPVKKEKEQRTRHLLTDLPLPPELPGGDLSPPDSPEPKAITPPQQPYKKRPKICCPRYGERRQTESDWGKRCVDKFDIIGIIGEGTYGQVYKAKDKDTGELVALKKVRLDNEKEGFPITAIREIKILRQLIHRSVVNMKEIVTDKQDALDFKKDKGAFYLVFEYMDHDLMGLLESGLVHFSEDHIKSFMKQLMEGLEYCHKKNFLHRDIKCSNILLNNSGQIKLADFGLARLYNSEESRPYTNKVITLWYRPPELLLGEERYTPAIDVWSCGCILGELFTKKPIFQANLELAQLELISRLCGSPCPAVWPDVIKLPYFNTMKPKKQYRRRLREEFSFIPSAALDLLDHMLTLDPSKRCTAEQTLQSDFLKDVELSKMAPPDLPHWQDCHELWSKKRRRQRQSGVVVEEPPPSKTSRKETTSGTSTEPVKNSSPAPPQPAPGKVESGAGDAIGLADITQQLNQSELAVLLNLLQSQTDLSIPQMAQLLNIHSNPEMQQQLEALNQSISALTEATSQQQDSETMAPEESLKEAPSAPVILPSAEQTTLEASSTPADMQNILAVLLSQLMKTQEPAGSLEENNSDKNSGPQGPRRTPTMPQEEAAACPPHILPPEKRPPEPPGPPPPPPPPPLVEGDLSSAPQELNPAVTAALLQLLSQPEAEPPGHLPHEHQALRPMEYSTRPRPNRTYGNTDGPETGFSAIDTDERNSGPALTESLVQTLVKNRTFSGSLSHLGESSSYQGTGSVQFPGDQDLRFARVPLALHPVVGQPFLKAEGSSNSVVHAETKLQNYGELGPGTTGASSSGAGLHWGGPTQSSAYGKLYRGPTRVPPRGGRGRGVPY
Chain of CDK12/CyclinK (O75909 whole entry partner): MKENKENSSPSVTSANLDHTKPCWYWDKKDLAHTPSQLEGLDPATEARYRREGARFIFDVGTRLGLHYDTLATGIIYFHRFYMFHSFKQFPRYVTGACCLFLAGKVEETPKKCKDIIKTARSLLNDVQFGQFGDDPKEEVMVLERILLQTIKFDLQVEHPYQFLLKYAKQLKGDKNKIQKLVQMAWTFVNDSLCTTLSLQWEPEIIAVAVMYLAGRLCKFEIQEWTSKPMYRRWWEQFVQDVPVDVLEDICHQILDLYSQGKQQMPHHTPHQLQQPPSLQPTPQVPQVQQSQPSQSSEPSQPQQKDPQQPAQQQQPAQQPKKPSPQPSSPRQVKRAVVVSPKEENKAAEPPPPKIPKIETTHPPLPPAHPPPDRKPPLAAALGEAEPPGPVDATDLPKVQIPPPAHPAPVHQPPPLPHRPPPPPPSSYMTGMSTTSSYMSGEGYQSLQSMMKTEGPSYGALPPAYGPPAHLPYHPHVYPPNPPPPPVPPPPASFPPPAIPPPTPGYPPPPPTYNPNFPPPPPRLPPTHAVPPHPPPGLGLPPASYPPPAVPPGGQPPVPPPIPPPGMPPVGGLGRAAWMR

Structure (SMILES)	GI50 (SK-Br3 cells)	GI50 (HCC1954 cells)	IC50 (CDK12/CyclinK; Table 5, means and standard deviations from three independent assays, read-out: CDK12/CyclinK (IC50/μM))	IC50 (CDK12/CyclinK; [1])	IC50 (CDK12/CyclinK; read-out: CDK12/cyclinK IC50)
CC(C)n1cnc2c(NCc3nc4ccc(F)c(F)c4[nH]3)nc(N3CCCC[C@H]3CCO)nc21 [Compound 2, reference compound]	0.094 ± 0.012 µM	0.069 ± 0.006 µM	0.0086 ± 0.0017 µM	–	–
Cc1ccc(-c2ccc(CNc3nc(-c4cccnc4)nc4c3ncn4C(C)C)nc2)cn1 [Compound 17c, 9-Isopropyl-N-((6′-methyl-[3,3′-bipyridin]-6-yl)methyl)-2-(pyridin-3-yl)-9H-purin-6-amine]	24.6 ± 4.99 µM	13.6 ± 1.16 µM	–	1.11 µM	–
CC(C)n1cnc2c(NCc3ccc(-c4cccnc4)nc3)nc(-c3cccnc3)nc21 [Compound 17f, N-([2,3′-Bipyridin]-5-ylmethyl)-9-isopropyl-2-(pyridin-3-yl)-9H-purin-6-amine]	0.41 ± 0.034 µM	0.247 ± 0.03 µM	–	0.221 µM	–
CC(C)n1cnc2c(NCc3ccc(-c4ccncc4)nc3)nc(-c3cccnc3)nc21 [Compound 17g, N-([2,4′-Bipyridin]-5-ylmethyl)-9-isopropyl-2-(pyridin-3-yl)-9H-purin-6-amine]	0.804 ± 0.095 µM	0.494 ± 0.048 µM	–	0.153 µM	–
CC(C)n1cnc2c(NCc3ccc(-c4cccnc4)nc3)nc(-c3ccccc3)nc21 [Compound 18a, N-([2,3′-Bipyridin]-5-ylmethyl)-9-isopropyl-2-phenyl-9H-purin-6-amine]	1.69 ± 0.243 µM	1.12 ± 0.26 µM	–	0.623 µM	–
CC(C)n1cnc2c(NCc3ccc(-c4cccnc4)nc3)nc(-c3cccc(C(N)=O)c3)nc21 [Compound 18b, 3-(6-(([2,3′-Bipyridin]-5-ylmethyl)amino)-9-isopropyl-9H-purin-2-yl)benzamide]	1.62 ± 0.248 µM	1.14 ± 0.304 µM	–	0.504 µM	–
CC(C)n1cnc2c(NCc3ccc(-c4cccnc4)nc3)nc(-c3ccc(C(N)=O)cc3)nc21 [Compound 18c, 4-(6-(([2,3′-Bipyridin]-5-ylmethyl)amino)-9-isopropyl-9H-purin-2-yl)benzamide]	3.71 ± 0.45 µM	3.14 ± 0.201 µM	–	0.484 µM	–
CC(C)n1cnc2c(NCc3ccc(-c4cccnc4)nc3)nc(-c3ccc4[nH]ccc4c3)nc21 [Compound 18d, N-([2,3′-Bipyridin]-5-ylmethyl)-2-(1H-indol-5-yl)-9-isopropyl-9H-purin-6-amine]	1.5 ± 0.112 µM	1.35 ± 0.243 µM	–	0.155 µM	–
CC(C)n1cnc2c(NCc3ccc(-c4cccnc4)nc3)nc(-c3ccc4cn[nH]c4c3)nc21 [Compound 18e, N-([2,3′-Bipyridin]-5-ylmethyl)-2-(1H-indazol-6-yl)-9-isopropyl-9H-purin-6-amine]	0.608 ± 0.115 µM	0.399 ± 0.051 µM	–	0.179 µM	–
CC(C)n1cnc2c(NCc3ccc(-c4cccnc4)nc3)nc(-c3ccc4[nH]ncc4c3)nc21 [Compound 18f, N-([2,3′-Bipyridin]-5-ylmethyl)-2-(1H-indazol-5-yl)-9-isopropyl-9H-purin-6-amine]	2.58 ± 0.167 µM	1.86 ± 0.148 µM	–	0.104 µM	–
CC(C)n1cnc2c(NCc3ccc(-c4cccnc4)nc3)nc(-c3cnc4ccccc4c3)nc21 [Compound 18g, N-([2,3′-Bipyridin]-5-ylmethyl)-9-isopropyl-2-(quinolin-3-yl)-9H-purin-6-amine]	3.71 ± 0.557 µM	4.23 ± 0.214 µM	–	0.486 µM	–
Cc1ccc(-c2nc(NCc3ccc(-c4cccnc4)nc3)c3ncn(C(C)C)c3n2)cn1 [Compound 18h, N-([2,3′-Bipyridin]-5-ylmethyl)-9-isopropyl-2-(6-methylpyridin-3-yl)-9H-purin-6-amine]	1.27 ± 0.33 µM	0.942 ± 0.125 µM	–	0.09 µM	–
CC(C)n1cnc2c(NCc3ccc(-c4cccnc4)nc3)nc(-c3ccc(N)nc3)nc21 [Compound 18i, N-([2,3′-Bipyridin]-5-ylmethyl)-2-(6-aminopyridin-3-yl)-9-isopropyl-9H-purin-6-amine]	0.376 ± 0.067 µM	0.278 ± 0.007 µM	–	0.065 µM	< 0.1 µM
CC(C)n1cnc2c(NCc3ccc(-c4cccnc4)nc3)nc(-c3ccnc(N)c3)nc21 [Compound 18j, N-([2,3′-Bipyridin]-5-ylmethyl)-2-(2-aminopyridin-4-yl)-9-isopropyl-9H-purin-6-amine]	0.71 ± 0.024 µM	0.354 ± 0.06 µM	–	0.094 µM	< 0.1 µM
CC(C)n1cnc2c(NCc3ccc(-c4cccnc4)nc3)nc(-c3cncnc3)nc21 [Compound 18k, N-([2,3′-Bipyridin]-5-ylmethyl)-9-isopropyl-2-(pyrimidin-5-yl)-9H-purin-6-amine]	0.318 ± 0.149 µM	0.31 ± 0.041 µM	–	0.051 µM	< 0.1 µM
CC(C)n1cnc2c(NCc3ccc(-c4cccnc4)nc3)nc(-c3cnc(N)nc3)nc21 [Compound 18l, N-([2,3′-Bipyridin]-5-ylmethyl)-2-(2-aminopyrimidin-5-yl)-9-isopropyl-9H-purin-6-amine]	0.242 ± 0.042 µM	0.162 ± 0.011 µM	–	0.087 µM	< 0.1 µM
CC(C)n1cnc2c(NCc3ccc(-c4cccnc4)nc3)nc(-c3ccn[nH]3)nc21 [Compound 18m, N-([2,3′-Bipyridin]-5-ylmethyl)-9-isopropyl-2-(1H-pyrazol-5-yl)-9H-purin-6-amine]	1.72 ± 0.336 µM	1.13 ± 0.05 µM	–	0.501 µM	–
CC(C)n1cnc2c(NCc3ccc(-c4cccnc4)nc3)nc(-c3cn[nH]c3)nc21 [Compound 18n, N-([2,3′-Bipyridin]-5-ylmethyl)-9-isopropyl-2-(1H-pyrazol-4-yl)-9H-purin-6-amine]	1.99 ± 0.12 µM	1.17 ± 0.027 µM	–	1.43 µM	–
CC(C)n1cnc2c(NCc3ccc(-c4cccnc4)nc3)nc(-c3ccccc3N)nc21 [Compound 19a, N-([2,3′-Bipyridin]-5-ylmethyl)-2-(2-aminophenyl)-9-isopropyl-9H-purin-6-amine]	2.61 ± 0.899 µM	2.63 ± 0.448 µM	–	0.619 µM	–
CC(C)n1cnc2c(NCc3ccc(-c4cccnc4)nc3)nc(-c3cccc(N)c3)nc21 [Compound 19b, N-([2,3′-Bipyridin]-5-ylmethyl)-2-(3-aminophenyl)-9-isopropyl-9H-purin-6-amine]	0.614 ± 0.055 µM	0.341 ± 0.059 µM	–	0.17 µM	–
CC(C)n1cnc2c(NCc3ccc(-c4cccnc4)nc3)nc(-c3ccc(N)cc3)nc21 [Compound 19c, N-([2,3′-Bipyridin]-5-ylmethyl)-2-(4-aminophenyl)-9-isopropyl-9H-purin-6-amine]	0.795 ± 0.063 µM	0.497 ± 0.088 µM	–	0.15 µM	–
CC(C)n1cnc2c(NCc3ccc(-c4cccnc4)nc3)nc(-c3ccccc3NCCO)nc21 [Compound 20a, 2-((2-(6-(([2,3′-Bipyridin]-5-ylmethyl)amino)-9-isopropyl-9H-purin-2-yl)phenyl)amino)ethan-1-ol]	2.3 ± 0.318 µM	1.56 ± 0.116 µM	–	0.799 µM	–
c1cncc(-c2ccc(CNc3nc(-c4cccnc4)nc4c3ncn4C3CCOCC3)cn2)c1 [Compound 28c, N-([2,3′-Bipyridin]-5-ylmethyl)-2-(pyridin-3-yl)-9-(tetrahydro-2H-pyran-4-yl)-9H-purin-6-amine]	> 100 µM	44.4 ± 2.46 µM	–	–	–
CC[C@H](CO)Nc1nc(NCc2ccc(-c3ccccn3)cc2)c2ncn(C(C)C)c2n1 [R-CR8 (9), reference compound]	0.101 ± 0.014 µM	0.083 ± 0.011 µM	–	–	–
